PubChem BioAssay AID651717 (Broad Institute, 2012)

Test system: mESC Bmi1-luciferase reporter, firefly/renilla ratio, 24 h
Test: compounds raising Bmi1 reporter signal – mouse embryonic stem cells, luciferase, cherry-pick, esBAF inhibitor project, dose response (AID 651717);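 note: luciferase knocked into Bmi1 locus with EF-1a renilla as cell number control; rising ratio signals esBAF inhibition which derepresses Bmi1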

SMILES | AC40 [µM]
Cc1ccccc1C(=O)c1cccn1CC(=O)NCc1ccccc1Cl | 9.17
Cc1ccc2nc(-c3cccc(S(=O)(=O)N4CCCC4)c3)cn2c1 | 23.2
O=c1cc(-c2ccsc2)oc2ccc(-c3ccc4cc[nH]c4c3)cc12 | 9.01
Cc1cccc(NC(=O)c2c(O)c3ccccc3[nH]c2=O)c1 | 0.371
O=C(c1c(Cl)nc2sccn12)N(C(=O)c1c(Cl)nc2sccn12)c1ccc(Cl)cn1 | 0.693
COc1ccc(Nc2nc(C)c(C(C)=O)s2)cc1 | 4.13
CN1CCN(C(=O)C[C@@H]2CC[C@@H]3[C@H](COC[C@@H](O)CN3C(=O)Nc3ccc4c(c3)OCO4)O2)CC1 | 24.2
CCN(CC)C(=O)OCc1c(-c2ccccc2)ncc2ccccc12 | 2.25
Cc1cc(Br)ccc1OCc1nc(-c2cccnc2)no1 | 9.06
CCN(CC)S(=O)(=O)c1cccc(-c2cn3cc(C)ccc3n2)c1 | 4
COc1cccc(N2CCN(C(=O)c3ccc4nc(N5CCCCC5)sc4c3)CC2)c1 | 5.88
O=C(O)c1ccc(O)c2ncccc12 | 1.67
COc1ccc(C(=O)NCc2ccc(-c3nc4ccccc4s3)cc2)cc1 | 6.13
CCCc1cc(C(=O)Nc2cc(Br)ccc2O)no1 | 8.53
Cc1ccc(NC(=O)O/N=C/c2ccc(N(C)C)cc2)cc1 | 16.6
COc1cc(C2Nc3cc(Cl)c(S(N)(=O)=O)cc3S(=O)(=O)N2)ccc1OCc1ccccc1 (stereo not drawn) | 3.48
CCN(C(=O)c1cccs1)c1nnc(-c2ccncc2)s1 | 1.05
Cc1ccc(C(=O)CNc2ccccc2)cc1 | 16.6
O=C(NCCc1ccccc1)c1cccc(NC(=O)C2CCC2)c1 | 8.75
O=C(Nc1ccc(F)cc1)NC1CCCCCCC1 | 12
O=C(Cc1ccc(Cl)cc1)c1ccccc1 | 1.84
COc1cccc(NC(=O)C(=O)NCCC2CCCCN2S(=O)(=O)c2ccccc2)c1 (stereo not drawn) | 2.93
O=C1CCCc2cc3c(ccc4ccccc43)cc21 | 3.18
COc1ccccc1-c1cnc(C(O)c2ccc(C)cc2)[nH]1 (stereo not drawn) | 10.2
OCc1c(OCc2cccc(F)c2)ccc2ccccc12 | 7.24

SMILES | AC40 [µM]
COc1ccc(NC(=O)Nc2cc(C)ccc2F)cc1 | 0.738
COc1cccc(-c2noc(C3CCCN(C(=O)CC(C)(C)C)C3)n2)c1 (stereo not drawn) | 6.48
CC(=Nc1ccccc1O)c1sc2ccccc2c1O | 3.82
NNC(=O)c1nc2ccccc2s1 | 4.4
CN(C)c1ccc(-c2ccc3oc(-c4ccsc4)cc(=O)c3c2)cn1 | 2.73
O=C(Cc1ccccc1)Nc1nc(-c2cccs2)cs1 | 8.2
COc1ccc(NC(=O)c2cc(-c3cccs3)on2)cc1 | 3.06
Cc1cc(C(=O)Cn2cnc3ccccc3c2=O)c(C)n1C1CC1 | 2.92
C=CCn1cccc(C(=O)Nc2ccc(Cl)cc2)c1=O | 3.88
Clc1ccc(C=NN2CCCCCC2)cc1 | 0.983
Cc1nc(-c2ccc(Cl)cc2)sc1C1(C)CC(c2cccnc2)=NO1 (stereo not drawn) | 5.57
COc1ccc(-c2cc([C@H]3[C@H]4C=CC[C@@H](C)[C@@H]4C(=O)N3Cc3ccccc3)ccc2F)cc1OC | 17.8
O=c1ccc2ccc(OCc3ccccc3)cc2o1 | 3.55
CCN(C(=O)c1cc2c(=O)n3cccc(C)c3nc2s1)C1CCCCC1 | 25.1
COc1ccc(-c2cc(C(=O)Nc3ccc(C(N)=O)cc3)c3ccccc3n2)cc1 | 4.1
COc1ccc(CNc2nc3ccccc3s2)cc1OC | 3.7
Cc1ccc(NC(=O)NC2CCCCCCC2)cc1C | 4.22
O=c1c2ccccc2oc2cc(-c3ccc4cc[nH]c4c3)ccc12 | 1.46
CCN(CC)S(=O)(=O)c1ccc2c(c1)nc(-c1ccccn1)n2C | 11.1
CN(Cc1cccnc1)C(=O)c1cc(COc2ccc3c(c2)CCCC3)on1 | 0.9
COc1ccc(NC(=O)c2cc3sccc3n2Cc2ccc(F)cc2)cc1OC | 13.8
CCC(C)(C)C1CCc2[nH]nc(C(=O)NC3CCCCC3)c2C1 (stereo not drawn) | 6.44
COc1cc(CNc2ccc(S(N)(=O)=O)cc2)ccc1OCc1ccccc1F | 1.87
COc1ccc2oc3cc(Cl)ccc3c(=O)c2c1 | 2.85
CN(C)c1ccc(C=NN2CCCCCC2)cc1 | < 0.26

SMILES | AC40 [µM]
O=C(C[C@@H]1CC[C@@H]2[C@H](COC[C@H](O)CN2C(=O)Nc2ccc(Cl)cc2)O1)NCC1CCCCC1 | 2.62
CC1CCc2c(sc(NC(=O)c3cccn3C)c2C(N)=O)C1 (stereo not drawn) | 3.63
Cc1ccc(NC(=O)C2CCN(S(=O)(=O)c3ccc4ccccc4c3)CC2)nc1 | 6.53
Nc1nc(SCc2ccccc2)sc1C(=O)N1CCCCC1 | 2.53
O=C(/C=N/NC(=O)c1ccc(Cl)cc1Cl)c1ccccc1 | 1.41
Cc1ccc(NC(=O)c2ccc3c(c2)CCN3S(C)(=O)=O)cc1 | 10.5
Cc1ccc(-n2nnc(-c3cccnc3)n2)cc1 | 0.926
CC(=O)Oc1ccc2cc(-c3ccccc3)c(=O)oc2c1 | 4.46
COc1ccc(/C=C/C(=O)Oc2cccc(/C=N/NC(=O)Cc3ccc(Br)cc3)c2)cc1 | 4.57
COc1ccc(CNc2nc(NCc3ccc(OC)cc3)n(C(=O)c3ccccc3[N+](=O)[O-])n2)cc1 | 18.8
Clc1cccc(Cl)c1Cn1nnc(-c2cccs2)n1 | 3.31
COc1ccc([C@@H](C)NC(=O)c2ccc3oc(C(C)C)nc3c2)cc1 | 9.81
O=C1C(=C2CCc3ccccc32)Cc2ccccc21 | 0.363
CC(=O)N(C)c1nc(-c2ccc(Cl)cc2)cs1 | 5.63
Cc1ccc(C(=O)NCC(=O)Nc2ccc3c(c2)CCC3)cc1 | 1.44
Clc1ccccc1C=NNc1ccccn1 | 2.27
Cc1cccc(Oc2ccc(Cl)cc2N)c1 | 5.77
Cc1ccnc(NC(=O)CCCc2ccccc2)c1 | 5.74
CC(C)CN=c1cc(-c2ccccc2)oc2ccc(Cl)cc12 | 2.27
COc1ccc(OCc2cc(C(=O)NC(C)Cc3cnccn3)no2)c(Cl)c1 (stereo not drawn) | 5.42
Cc1cc2nc(N3CCN(C(=O)c4cccs4)CC3)sc2cc1C | 1.98
COc1cc(/C=C/c2ccc(O)cc2)cc(OC)c1 | 2.31
Cc1sc2c(c1C)CN(C(C)(C)C)CN2C(=O)c1ccccc1 | 1.37
COCOc1ccc(-c2cc(=O)c3c(O)cc(OCOC)cc3o2)cc1 | 8.4
Cc1cc(NC(=O)Nc2ccc3c(ccn3C)c2)sn1 | 5.14

SMILES | AC40 [µM]
COc1ccccc1N1C(=O)S/C(=C\c2ccc(C)s2)C1=O | 1.95
c1ccc(-n2nnc3ccccc32)nc1 | 11.2
COc1nc(Nc2ccc(C(C)C)cc2)nc(OC)n1 | 10.8
CCCn1cnc2cc(NCc3ccccc3O)ccc21 | 17.2
c1ccc(-c2csc(Nc3cccnc3)n2)nc1 | 4.74
COC(=O)c1c(-c2ccc(Br)cc2)noc1N | 14.7
Cn1c(=NC(=O)C2CC2)sc2cc(F)cc(F)c21 | 16.6
c1ccc(-c2cc3ccccc3[nH]2)cc1 | 5.17
COc1cccc(NC(=O)CN(C)C(=O)CNC(=O)c2sc3ccccc3c2Cl)c1 | 4.99
COc1ccc(CNC(=O)c2ccc3ccccc3n2)cc1 | 29.4
CC(=O)Nc1ccc2nc(SCC(=O)Nc3ccc(N4CCOCC4)c(Cl)c3)sc2c1 | 3.57
COc1cccc(C(=O)Nc2ccc(Cl)c(C(F)(F)F)c2)c1 | 5.59
COc1ccc2nc3sc(C(=O)NCCCN4CCc5ccccc5C4)cc3cc2c1 | 11.9
Cc1ccn2c(CC(C)(C)C)c(-c3ccc(F)cc3)nc2c1 | 1.38
Cc1ccc(-c2nc(COC(=O)c3c(C)noc3C)cs2)cc1 | 4.93
c1ccc(Cn2cnc3ccccc32)cc1 | 0.984
COc1ccc(C(=O)NCCS(=O)(=O)NCCc2ccccc2)cc1 | 0.726
CC/C(=N\NC(=O)c1cc(C2CC2)[nH]n1)c1ccccc1 | 4.25
CC(=O)Nc1nc(-c2ccc(-c3ccccc3)cc2)cs1 | 1.56
COc1ccc(C2Nc3ccccc3C(=O)N2c2ccc(C)cc2)cc1Cn1nc(C)c([N+](=O)[O-])c1C (stereo not drawn) | 12.6
CC(NC(=O)c1cc(COc2cccc(C(F)(F)F)c2)on1)c1nccs1 (stereo not drawn) | 6.45
C=CCNc1nc(-c2ccc(O)c(C(N)=O)c2)cs1 | 6.2
Cc1nc(Nc2ccccc2)sc1C(=O)c1ccc(F)cc1 | 3.93
CN(C)c1cccc(-c2csc(N3CCC(C(N)=O)CC3)n2)c1 | 0.362
CC(C)(C)NC(=O)Cn1nnc(-c2ccccc2Cl)n1 | 5.29

SMILES | AC40 [µM]
O=C(c1ccc(Cl)cc1)c1cnc(Nc2ccccc2)s1 | 1.46
NC(=O)C1CCN(c2nc(-c3cccc(N)c3)cs2)CC1 | 1.35
O=C(N/N=C/c1cccs1)c1cccc2cc[nH]c12 | 6.06
O=C(c1cc2ccccc2oc1=O)N(Cc1cccs1)C1CCS(=O)(=O)C1 (stereo not drawn) | 3.94
CO[C@H]1CN(C)C(=O)c2cc(NC(=O)NC(C)C)ccc2OC[C@@H](C)N(Cc2ccc(-c3ccccn3)cc2)C[C@@H]1C | 22.6
Cc1noc(C)c1C(=O)Nc1nc(-c2cc(F)ccc2F)cs1 | 6.63
COc1ccc(-c2noc(CCCC(=O)N3CCN(c4cc(C)ccc4C)CC3)n2)cc1 | 3.53
CCOC(=O)C1=C(CSc2nc(-c3ccccc3)ccc2C#N)OC(N)=C(C#N)C1c1ccc(OC)cc1 (stereo not drawn) | 6.12
O=C(NOCc1ccccc1)OCc1ccccc1 | 4.39
Cc1cc(F)ccc1-c1cc(C(=O)NC2CCCCC2)[nH]n1 | 9.06
c1ccc(Nc2nc(-c3ccncc3)cs2)cc1 | 2.71
O=C(Nc1ccc2oc(-c3ccccc3)nc2c1)c1cccs1 | 1.58
Cc1ccc(C)c(N2CCN(C(=O)CCc3nc(-c4ccccc4C(F)(F)F)no3)CC2)c1 | 4.63
CO[C@@H]1CN(C)C(=O)c2ccc(NC(=O)Nc3ccc4c(c3)OCO4)cc2OC[C@@H](C)NC[C@@H]1C | 2.93
CC1CCC(NC(=O)c2cc3ccccc3cc2O)CC1 (stereo not drawn) | 0.967
CCCCSc1nnc(-c2c[nH]c3ccccc23)n1C | 6.69
OC(c1ccccc1)c1nc(/C=C/c2ccccc2)cs1 (stereo not drawn) | 4.88
C=CCn1c(O)c(C=Nc2ccccc2)sc1=S | 5.13
COc1ccc(C(=O)CCc2ccccc2O)c(OC)c1 | 3.58
COc1cc(Cl)c(C)cc1NC(=O)c1cccc(OC)c1OC | 6.31
CCOC(=O)C1=C(CSc2nc(-c3ccccc3)ccc2C#N)OC(N)=C(C#N)C1c1cccnc1 (stereo not drawn) | 2.89
c1ccc(-c2nnc3oc(-c4cccs4)nn23)cc1 | 5.88
S=c1[nH]nc(SCc2ccccc2)c2[nH]cnc12 | 5.52
